Test system: E. coli RNase P (M1 RNA + C5 protein)
Test: Inhibition of RNase P hydrolysis of fluorescent RNA target by inhibiting oligonucleotides
Assay type: biochemical, Escherichia coli
Conditions: 5 nM M1 RNA, 50 nM C5 protein, 100 nM fluorescent RNA target, 0-125 nM inhibiting oligonucleotide, 10 mM Tris-HCl pH 7.5, 10 mM MgCl2, 100 mM NH4Cl, 37°C; fluorescence read-out; mean ± SD from two independent experiments

| Substance | IC50 [nM] |
| --- | --- |
| d-inh: oligodeoxyribonucleotide 5’-d(CAAGCAGCCTACCC) (DNA, backbone not given here) | 270 ± 90 |
| r-inh: native oligoribonucleotide 5’-r(CAAGCAGCCUACCC), complementary to nucleotides 291–304 in the P15-loop of E. coli M1 RNA (RNA, backbone not given here) | 12 ± 4 |

— PMC6658616, “Novel Peptide Conjugates of Modified Oligonucleotides for Inhibition of Bacterial RNase P” (Frontiers in Pharmacology, 2019)
